How the values were obtained:
[1] = test system: S310A subgenomic replicon-replicating cells (clones); experiment: Effect of antiviral agents on replicon RNA replication in S310A subgenomic replicon-replicating cells (quantification of replicon RNA copy number); type: cell-based, hepatitis C virus of genotype 3a (S310A strain); settings: S310A subgenomic replicon-replicating cell clones 6, 9 and 10; inhibitor for 3 days; relative to no inhibitor (100%)
Experimental: (§1) With the use of the S310A subgenomic replicon-replicating cells of the established 10 clones (Clone Nos. 1 to 10), the copy number of intracellular HCV subgenomic replicon RNA was quantified. The quantification of copy number of HCV subgenomic replicon RNA was carried out in accordance with the technique described in Takeuchi et al. (Gastroenterology, 1999, Vol. 116, pp. 636-642) and Kato et al. (Gastroenterology, 2003, Vol. 125, pp. 1808-1817).
(§2) This technique is a detection system using TaqMan probe method (PerkinElmer Inc., Applied Biosystems Inc.). Specifically, total RNA was first extracted from the S310A subgenomic replicon-replicating cells in accordance with a conventional technique. Subsequently, cDNA was synthesized from total RNA using rTth DNA polymerase, and the synthesized cDNA template was amplified via PCR using the primers: 5′-CGGGAGAGCCATAGTGG-3′ (SEQ ID NO: 24) and 5′-AGTACCACAAGGCCTTTCG-3′ (SEQ ID NO: 25). At this time, a probe having the nucleotide sequence 5′-[…]-3′ (SEQ ID NO: 26) to which a fluorescent dye, 6′-carboxy-fluorescein (FAM), had been bound at the 5′ terminus and a quencher, 6′-carboxytetramethyl-rhodamine (TAMRA), had been bound at the 3′ terminus was added. In the presence of such probe, the probe that had hybridized to the template cDNA is degraded because of 5′ exonuclease activity of the Taq polymerase during the process of amplification, the fluorescent dye is released from the probe, suppression by the quencher is released, thereby emitting fluorescence. Thus, such fluorescence was detected with ABI Prism 7700 (ParkinElmer Inc., Applied Biosystems Inc.) to quantify the copy number of HCV subgenomic replicon RNA.
The S310A subgenomic replicon-replicating cells (clones) and the JFH-1 subgenomic replicon-replicating cells were seeded on 24-well plates at a density of 5×10^4 cells/well, interferon-α (IFN-α), NS3 protease inhibitors (VX-950 (telaprevir) (Lin et al, Journal of Biological Chemistry, 2004, Vol. 279, pp. 17508-17514) and BILN-2061 (Daniel et al, Nature, 2003, Vol. 426, pp. 186-189)), and NS5B polymerase inhibitors JTK-109 (Hirashima et al, Journal of Medicinal Chemistry, 2006, Vol. 49, pp. 4721-4736) and PSI-6130 (Clark et al, Journal of Medicinal Chemistry, 2005, Vol. 48, pp. 5504-5508) were added to the wells on the following day, and the reaction was allowed to proceed for 3 days. Thereafter, the cells were recovered, total RNAs were extracted therefrom, and the copy number of HCV subgenomic replicon RNA in the cells was quantified in the same manner as in Example 4.
In each figure, the horizontal axis represents the concentration of an inhibitor added. The vertical axis represents change ratio of HCV RNA levels, which is the percentage (%) of the amount of subgenomic replicon RNA per μg of total RNA from cells when an inhibitor was added, relative to the amount of subgenomic replicon RNA per μg of total RNA from cells when no inhibitor was added (0 IU or 0 M) (defined as 100%). In the Figures, the leftmost bar (white) represents the results for the JFH-1 subgenomic replicon-replicating cells, the second bar from the left (light gray) represents the results for the S310A subgenomic replicon-replicating cell clone 6, the third bar from the left (black) represents the results for the S310A subgenomic replicon-replicating cell clone 9, and the rightmost bar (dark gray) represents the results for the S310A subgenomic replicon-replicating cell clone 10 at each inhibitor concentration.

[2] = test system: JFH-1 subgenomic replicon-replicating cells; experiment: Effect of antiviral agents on replicon RNA replication in JFH-1 subgenomic replicon-replicating cells (quantification of replicon RNA copy number); type: cell-based, hepatitis C virus of genotype 2a (JFH-1 strain); settings: inhibitor for 3 days, relative to no inhibitor (100%)
Experimental: as §1, §2
As a control for comparison, the cells into which HCV subgenomic replicon RNA of the JFH-1 strain of genotype 2a had been introduced (the JFH-1 subgenomic replicon-replicating cells) were used. The JFH-1 strain HCV subgenomic replicon RNA expression vector (comprising the 5′ untranslated region (5′ UTR), the sequence of 57 nucleotides at the 5′ terminus of the Core protein coding region, the neomycin resistance gene, the EMCV IRES sequence, the nucleotide sequences encoding the NS3 protein, the NS4A protein, the NS4B protein, the NS5A protein and the NS5B protein, and the 3′ untranslated region (3′ UTR) of the HCV JFH-1 strain in this order from the 5′ to 3′ direction) was constructed and HCV subgenomic replicon RNA was produced in accordance with the techniques described in Kato et al. (Gastroenterology, 2003, Vol. 125, pp. 1808-1817) and International Publication No. WO 04/104198. Introduction thereof into the Huh cells and quantification of the copy number were carried out in the manner as described above. […]

HCV genotype 3a = settings: Reesink et al., Gastroenterology, 2010; cited from earlier work
[3] = test system: HCV genotypes 1 to 6 except for genotype 3a; settings: Reesink et al., Gastroenterology, 2010; cited from earlier work
HCV genotype 1b = settings: Mori et al., 1992; cited from earlier work
HCV genotype 2a or 3a = settings: compared with genotype 1b; Mori et al., 1992; cited from earlier work

Compound	replication of the S310A subgenomic replicon RNAs (change ratio of HCV RNA levels) [1]	replication of the JFH-1 subgenomic replicon RNA (change ratio of HCV RNA levels) [2]	also measured
COc1ccc2c(O[C@@H]3C[C@H]4C(=O)N[C@]5(C(=O)O)C[C@H]5/C=C\CCCCC[C@H](NC(=O)OC5CCCC5)C(=O)N4C3)cc(-c3csc(NC(C)C)n3)nc2c1 [BILN-2061]	did not inhibit	exert inhibitory activity	–
O=C(O)c1ccc2c(c1)nc(-c1ccc(OCc3cc(N4CCCC4=O)ccc3-c3ccc(Cl)cc3)cc1F)n2C1CCCCC1 [JTK-109]	markedly inhibited	not to be inhibited	–
C[C@@]1(F)[C@H](O)[C@@H](CO)O[C@H]1n1ccc(N)nc1=O [PSI-6130]	inhibited	inhibited	–
COc1ccc2c(O[C@@H]3C[C@H]4C(=O)N[C@]5(C(=O)NS(=O)(=O)C6CC6)C[C@H]5/C=C\CCCCN(C)C(=O)[C@@H]4C3)cc(-c3nc(C(C)C)cs3)nc2c1C [TMC435]	–	–	inhibitory effects on genotype 3a (HCV genotype 3a): weak inhibitory effects; inhibitory effects on genotypes 1 to 6 except for genotype 3a [3]: strong inhibitory effects
CCC[C@H](NC(=O)[C@@H]1[C@H]2CCC[C@H]2CN1C(=O)[C@@H](NC(=O)[C@@H](NC(=O)c1cnccn1)C1CCCCC1)C(C)(C)C)C(=O)C(=O)NC1CC1 [VX-950, telaprevir]	did not inhibit	–	–
IFN-α	markedly inhibited	markedly inhibited	–
interferon	–	–	therapeutic effect of interferon on genotype 1b (HCV genotype 1b): low; therapeutic effect of interferon on genotype 2a or 3a (HCV genotype 2a or 3a): higher

From patent US9453056B2, “Nucleic acid construct comprising nucleic acid derived from genome of hepatitis C virus of genotype 3a” (priority 2011, dated 2016)
